In PubChem BioAssay AID330 (DTP/NCI, 2004):
Several values for one entry are separate records, joined by “and”; a condition that tells them apart may be missing. Equal entries are not always repeated. Toxic doses and inconclusive results are not listed. How the source made its calls: active means survival T/C of 150% or more; inactive means T/C below 125% in these data.

Test system: P388 leukemia ip, CD2F1 mice, survival T/C
Test: NCI In Vivo Anticancer Drug Screen. Data for tumor model P388 Leukemia (intraperitoneal) in CD2F1 (CDF1) mice
Details: endpoint: median survival time, higher = longer survival
How it was run: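 Mice carrying the transplanted tumor received test compound or vehicle. Survival was recorded in each group, and the value is the treated-group measurement divided by that of the vehicle-treated control group.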

[1] = dose: 12.5 mg/kg/injection, schedule: Q01DX009 (ip), vehicle: saline
[2] = dose: 25.0 mg/kg/injection, schedule: Q01DX009 (ip), vehicle: saline
[3] = dose: 60.0 mg/kg/injection, schedule: Q01DX005 (ip), vehicle: Klucel (hydroxypropylcellulose) (HPC)
[4] = dose: 120.0 mg/kg/injection, schedule: Q01DX005 (ip), vehicle: Klucel (hydroxypropylcellulose) (HPC)
[5] = dose: 240.0 mg/kg/injection, schedule: Q01DX005 (ip), vehicle: Klucel (hydroxypropylcellulose) (HPC)
[6] = dose: 50.0 mg/kg/injection, schedule: Q01DX005 (ip), vehicle: Klucel (hydroxypropylcellulose) (HPC)
[7] = dose: 100.0 mg/kg/injection, schedule: Q01DX005 (ip), vehicle: Klucel (hydroxypropylcellulose) (HPC)
[8] = dose: 50.0 mg/kg/injection, schedule: Q01DX009 (ip), vehicle: saline
[9] = dose: 12.5 mg/kg/injection, schedule: Q01DX009 (ip), vehicle: Klucel (hydroxypropylcellulose) (HPC)
[10] = dose: 25.0 mg/kg/injection, schedule: Q01DX009 (ip), vehicle: Klucel (hydroxypropylcellulose) (HPC)
[11] = dose: 50.0 mg/kg/injection, schedule: Q01DX009 (ip), vehicle: Klucel (hydroxypropylcellulose) (HPC)
[12] = dose: 100.0 mg/kg/injection, schedule: Q01DX009 (ip), vehicle: Klucel (hydroxypropylcellulose) (HPC)
[13] = dose: 60.0 mg/kg/injection, schedule: Q01DX005 (ip), vehicle: saline with Tween-80
[14] = dose: 240.0 mg/kg/injection, schedule: Q01DX005 (ip), vehicle: saline with Tween-80

Measured: T/C

CN(C)CCC[N+](C)(C)Cc1ccc(C[N+](C)(C)CCC[N+](C)(C)Cc2ccc(CCl)cc2)cc1
inactive: [1] 106 % of control | [2] 92 % of control

CC1([N+](=O)[O-])C(=O)C2(N3CCOCC3)CCCC2C1c1ccccc1 (stereo unspecified)
inactive: [3] 99 % of control | [4] 96 % of control | [5] 90 % of control

C=C1C(=O)N2CCc3c([nH]c4ccccc34)[C@H]2C[C@@H]1CO
inactive: [6] 95 % of control | [7] 88 % of control | dose: 200.0 mg/kg/injection, schedule: Q01DX005 (ip), vehicle: Klucel (hydroxypropylcellulose) (HPC) 96 % of control

CCOC(=O)/C(N)=N/N=Nc1ccc([N+](=O)[O-])cc1
inactive: [8] 103 % of control | dose: 100.0 mg/kg/injection, schedule: Q01DX009 (ip), vehicle: saline 103 % of control

COc1cc2c3cc1Oc1c(OC)c(OC)cc4c1C(Cc1ccc(cc1)Oc1cc(ccc1O)CC3N(C)CC2)N(C)CC4 (stereo unspecified)
inactive: [9] 97 % of control | [10] 97 % of control | [11] 94 % of control | [12] 105 % of control

Cc1cccc(-n2nc(C(=O)O)c(=O)[nH]c2=O)c1
inactive: dose: 100.0 mg/kg/injection, schedule: Q01DX001 (ip), vehicle: saline with Tween-80 104 % of control | dose: 200.0 mg/kg/injection, schedule: Q01DX001 (ip), vehicle: saline with Tween-80 99 % of control | dose: 400.0 mg/kg/injection, schedule: Q01DX001 (ip), vehicle: saline with Tween-80 95 % of control

N#Cc1ccc(C(=O)C=[N+]=[N-])cc1
inactive: dose: 100.0 mg/kg/injection, schedule: Q04DX003 (ip), vehicle: Klucel (hydroxypropylcellulose) (HPC) 109 % of control | dose: 200.0 mg/kg/injection, schedule: Q04DX003 (ip), vehicle: Klucel (hydroxypropylcellulose) (HPC) 93 % of control | dose: 400.0 mg/kg/injection, schedule: Q04DX003 (ip), vehicle: Klucel (hydroxypropylcellulose) (HPC) 100 % of control

CC(C)C(C(O)c1ccccc1)[N+](=O)[O-] (stereo unspecified)
inactive: dose: 100.0 mg/kg/injection, schedule: Q01DX009 (ip), vehicle: saline with Tween-80 104 % of control | dose: 200.0 mg/kg/injection, schedule: Q01DX009 (ip), vehicle: saline with Tween-80 95 % of control | dose: 400.0 mg/kg/injection, schedule: Q01DX009 (ip), vehicle: saline with Tween-80 86 % of control

CC(C)(C)c1ccc(/C=N/NC(=O)c2cccnc2)cc1
inactive: [6] 98 % of control | [7] 103 % of control

COC1CC(NC(C)=O)C(OC(=O)c2ccccc2)C(CBr)O1 (stereo unspecified)
inactive: dose: 1.56 mg/kg/injection, schedule: Q01DX009 (ip), vehicle: other 94 % of control | dose: 3.13 mg/kg/injection, schedule: Q01DX009 (ip), vehicle: other 94 % of control | dose: 6.25 mg/kg/injection, schedule: Q01DX009 (ip), vehicle: other 106 % of control | dose: 12.5 mg/kg/injection, schedule: Q01DX009 (ip), vehicle: other 108 % of control | dose: 25.0 mg/kg/injection, schedule: Q01DX009 (ip), vehicle: other 100 % of control and 106 % of control | dose: 50.0 mg/kg/injection, schedule: Q01DX009 (ip), vehicle: other 101 % of control | dose: 100.0 mg/kg/injection, schedule: Q01DX009 (ip), vehicle: other 104 % of control | dose: 200.0 mg/kg/injection, schedule: Q01DX009 (ip), vehicle: other 97 % of control | dose: 400.0 mg/kg/injection, schedule: Q01DX009 (ip), vehicle: other 92 % of control

NCCCn1ccc2c3ccccc3nc-2c1
inactive: dose: 12.5 mg/kg/injection, schedule: Q01DX009 (ip), vehicle: water 105 % of control | dose: 25.0 mg/kg/injection, schedule: Q01DX009 (ip), vehicle: water 90 % of control | dose: 50.0 mg/kg/injection, schedule: Q01DX009 (ip), vehicle: water 104 % of control | dose: 100.0 mg/kg/injection, schedule: Q01DX009 (ip), vehicle: water 105 % of control

CNCCCc1cc(-c2ccc([N+](=O)[O-])cc2)n[nH]1
inactive: dose: 100.0 mg/kg/injection, schedule: Q04DX002 (ip), vehicle: Klucel (hydroxypropylcellulose) (HPC) 100 % of control | dose: 200.0 mg/kg/injection, schedule: Q04DX002 (ip), vehicle: Klucel (hydroxypropylcellulose) (HPC) 100 % of control

COc1ccc2c(Br)c(NC(C)=O)ccc2c1Br
inactive: dose: 25.0 mg/kg/injection, schedule: Q04DX003 (ip), vehicle: saline 100 % of control | dose: 50.0 mg/kg/injection, schedule: Q04DX003 (ip), vehicle: saline 96 % of control | dose: 100.0 mg/kg/injection, schedule: Q04DX003 (ip), vehicle: saline 98 % of control and 96 % of control | dose: 400.0 mg/kg/injection, schedule: Q04DX003 (ip), vehicle: saline 95 % of control

CCN(CC)c1ccc(Pc2ccc(N(CC)CC)cc2)cc1
inactive: [1] 104 % of control | [2] 108 % of control | [8] 99 % of control and 88 % of control | dose: 200.0 mg/kg/injection, schedule: Q01DX009 (ip), vehicle: saline 92 % of control

O=C(OCCCN1CCCC1)C(c1ccccc1)C1C=CCC1 (stereo unspecified)
inactive: dose: 6.25 mg/kg/injection, schedule: Q01DX009 (ip), vehicle: Klucel (hydroxypropylcellulose) (HPC) 100 % of control | [9] 98 % of control | [10] 100 % of control | [11] 101 % of control | [12] 95 % of control | dose: 200.0 mg/kg/injection, schedule: Q01DX009 (ip), vehicle: Klucel (hydroxypropylcellulose) (HPC) 100 % of control | dose: 400.0 mg/kg/injection, schedule: Q01DX009 (ip), vehicle: Klucel (hydroxypropylcellulose) (HPC) 100 % of control

FC(F)(F)c1cccc(C2CNCCO2)c1 (stereo unspecified)
inactive: [1] 100 % of control | [2] 105 % of control | [8] 100 % of control

Cc1ccc(S(=O)(=O)CC(=O)CC(=O)C(=O)Nc2cc(C)ccc2C)cc1
inactive: [13] 105 % of control | dose: 120.0 mg/kg/injection, schedule: Q01DX005 (ip), vehicle: saline with Tween-80 108 % of control | [14] 106 % of control

Cc1ccc(C2(c3ccccc3)OC3OC=CC32)cc1 (stereo unspecified)
inactive: dose: 25.0 mg/kg/injection, schedule: Q01DX005 (ip), vehicle: saline with Tween-80 97 % of control | dose: 50.0 mg/kg/injection, schedule: Q01DX005 (ip), vehicle: saline with Tween-80 101 % of control | [13] 96 % of control | dose: 100.0 mg/kg/injection, schedule: Q01DX005 (ip), vehicle: saline with Tween-80 100 % of control | [14] 96 % of control

COC1(c2ccccc2)N=C(N)NC1(OC)c1ccccc1 (stereo unspecified)
inactive: dose: 6.25 mg/kg/injection, schedule: Q04DX002 (ip), vehicle: saline 103 % of control | dose: 12.5 mg/kg/injection, schedule: Q04DX002 (ip), vehicle: saline 102 % of control | dose: 25.0 mg/kg/injection, schedule: Q04DX002 (ip), vehicle: saline 98 % of control

[Cl][Sn]1([Cl])[CH2]CC[CH2][Sn]([Cl])([Cl])[CH2]CC[CH2]1
inactive: dose: 25.0 mg/kg/injection, schedule: Q01DX001 (ip), vehicle: saline 107 % of control | dose: 50.0 mg/kg/injection, schedule: Q01DX001 (ip), vehicle: saline 107 % of control | dose: 100.0 mg/kg/injection, schedule: Q01DX001 (ip), vehicle: saline 120 % of control | dose: 100.0 mg/kg/injection, schedule: Q04DX002 (ip), vehicle: saline 109 % of control

CC(=O)[O-].CC(=O)[O-].O=C(N/N=C/c1ccccc1[OH2+])c1ccncc1.[Zn+2]
inactive: [3] 100 % of control | [4] 100 % of control | [5] 99 % of control
